From ChEMBL document CHEMBL1201862, “PubChem BioAssay data set” (2004)
The source made the active and inactive calls.

Columns and labels:
[1] = biological target: T1, Ubiquitin-conjugating enzyme E2 N (Homo sapiens, UniProt P61088); type: functional;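 also: Dose-response confirmation in a TR-FRET assay detecting UBC13-driven polyubiquitin chain formation, inhibition measured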
T1 sequence (P61088 whole entry): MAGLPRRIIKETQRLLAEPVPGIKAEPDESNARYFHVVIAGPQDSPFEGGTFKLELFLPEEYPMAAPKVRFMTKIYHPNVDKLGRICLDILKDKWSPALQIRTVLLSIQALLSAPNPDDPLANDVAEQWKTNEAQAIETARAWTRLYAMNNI

[2] = Luminescence Cell-Based Dose Confirmation HTS to Identify Inhibitors of Platelet Dense Granule Release. [Related pubchem assays: 1663 (Primary HTS), 1678 (Summary of Project)]; type: functional
[3] = biological target: Luciferin 4-monooxygenase (Photinus pyralis, UniProt P08659); experiment: firefly luciferase enzyme inhibitors, dose response, biochemical, luminescence (AID 1891)
Sequence of Luciferin 4-monooxygenase (P08659 whole entry): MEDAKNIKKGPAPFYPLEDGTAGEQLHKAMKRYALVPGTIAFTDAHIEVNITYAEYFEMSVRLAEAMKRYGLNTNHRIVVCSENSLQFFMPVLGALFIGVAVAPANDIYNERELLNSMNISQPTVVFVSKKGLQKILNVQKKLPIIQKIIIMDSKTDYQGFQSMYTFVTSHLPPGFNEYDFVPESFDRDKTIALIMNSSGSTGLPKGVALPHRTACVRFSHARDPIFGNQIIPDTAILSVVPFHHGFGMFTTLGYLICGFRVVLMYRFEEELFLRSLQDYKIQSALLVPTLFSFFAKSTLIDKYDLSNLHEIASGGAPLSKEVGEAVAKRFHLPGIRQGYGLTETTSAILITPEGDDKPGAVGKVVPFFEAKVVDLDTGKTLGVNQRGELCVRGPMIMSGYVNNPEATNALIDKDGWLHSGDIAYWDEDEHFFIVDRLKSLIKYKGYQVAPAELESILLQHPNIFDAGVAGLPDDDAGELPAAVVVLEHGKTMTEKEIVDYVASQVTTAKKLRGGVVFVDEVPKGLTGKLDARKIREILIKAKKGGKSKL

[4] = Luminescence Cell-Based Dose Response HTS to Identify Inhibitors of 5'UTR Stem-Loop Driven Prion Protein mRNA Translation in H4 Neuroglioblastoma Cells. [Related pubchem assays: 1827 (Project Summary), 1813 (Primary HTS)]; type: functional
BJ [5] = experiment: cytotoxicity toward BJ-TERT fibroblasts, dose response, cell-based, RAS-independent, luminescence (AID 1933); type: functional; conditions: Homo sapiens
[6] = cytotoxicity toward DRD oncogenic fibroblasts, dose response, cell-based, non-viral oncogenic, luminescence (AID 1934); type: functional; conditions: Homo sapiens
[7] = inhibitors of firefly luciferase expression or activity, dose response, H4 neuroglioma cells, luminescence (AID 1990); type: functional, cell-based
[8] = inhibitors of SNCA 5'UTR-driven reporter translation, confirmation, H4 neuroglioma cells, luminescence (AID 1988); type: functional, cell-based
BJ [9] = experiment: cells; type: functional, cell-based; conditions: Homo sapiens
BJ [10] = experiment: cytotoxicity toward BJ-TERT-LT-ST fibroblasts, dose response, cell-based, RAS-independent, luminescence (AID 1935); type: functional; conditions: Homo sapiens;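 also: BJ fibroblasts immortalized with TERT plus LT and ST oncogenes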
[11] = Luminescence Cell-Based Dose Response HTS to Identify Activators of Luciferase Translation or Activity in H4 […] Cells. [Related pubchem assays: 1829 (Project Summary), 1814 (Primary HTS)]; type: functional
[12] = Luminescence Cell-Based Dose Confirmation HTS to Identify Activators of 5'UTR Stem-Loop Driven Alpha-Synuclein mRNA Translation in H4 Neuroglioblastoma Cells. [Related pubchem assays: 1829 (Project Summary), 1814 (Primary HTS)]; type: functional
[13] = microbe, parasite or virus in culture; type: functional; conditions: Mycobacterium tuberculosis
H4 = experiment: Luminescence Cell-Based Dose Response HTS to Identify Activators of 5'UTR Stem-Loop Driven Prion Protein mRNA Translation in H4 Neuroglioblastoma Cells. [Related pubchem assays: 1829 (Project Summary), 1814 (Primary HTS)]; type: functional; conditions: Homo sapiens
[14] = biological target: T2, Polyadenylate-binding protein 1 (Homo sapiens, UniProt P11940); experiment: PABP1 MLLE–PAM2 binding inhibitor potency, dose response, biochemical, fluorescence polarization, FITC-PAM2 peptide (AID 602259); type: functional; conditions: read-out: IC50_Mean
T2 sequence (P11940 whole entry): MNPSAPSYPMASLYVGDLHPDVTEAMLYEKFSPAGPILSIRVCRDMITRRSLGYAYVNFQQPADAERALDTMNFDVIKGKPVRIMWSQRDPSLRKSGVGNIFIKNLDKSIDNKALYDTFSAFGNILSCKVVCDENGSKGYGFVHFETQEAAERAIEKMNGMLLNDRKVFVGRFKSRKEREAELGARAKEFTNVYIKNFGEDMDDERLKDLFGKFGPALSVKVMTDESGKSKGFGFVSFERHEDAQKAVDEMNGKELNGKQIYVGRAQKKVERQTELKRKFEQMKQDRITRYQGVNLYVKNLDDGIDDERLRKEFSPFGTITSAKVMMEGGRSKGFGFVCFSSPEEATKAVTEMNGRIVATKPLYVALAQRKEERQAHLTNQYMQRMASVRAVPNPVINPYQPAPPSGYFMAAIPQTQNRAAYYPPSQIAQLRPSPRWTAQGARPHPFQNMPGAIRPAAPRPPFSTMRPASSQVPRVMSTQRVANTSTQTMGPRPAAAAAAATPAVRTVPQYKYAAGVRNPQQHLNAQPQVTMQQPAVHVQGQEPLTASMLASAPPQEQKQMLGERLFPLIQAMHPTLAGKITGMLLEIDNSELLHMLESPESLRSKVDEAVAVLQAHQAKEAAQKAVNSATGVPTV

[15] = biological target: T2, Polyadenylate-binding protein 1; experiment: PABP1 MLLE–PAM2 interaction inhibitors, dose response, miRNA deadenylation inhibitor project, biochemical, fluorescence polarization, Cy5-PAM2 peptide, secondary (AID 602260); type: functional; conditions: read-out: IC50_Mean
[16] = Luminescence Cell-Based Dose Retest to Confirm Inhibitors of Cancer Stem Cells. [Related pubchem assays (depositor defined):AID2717, AID2721]; type: functional; conditions: Homo sapiens
Cytochrome P450 1A2 = biological target: T3, Cytochrome P450 1A2 (Homo sapiens, UniProt P05177);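 also: PubChem cytochrome P450 panel assay, CYP1A2 panel member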
T3 sequence (P05177 whole entry): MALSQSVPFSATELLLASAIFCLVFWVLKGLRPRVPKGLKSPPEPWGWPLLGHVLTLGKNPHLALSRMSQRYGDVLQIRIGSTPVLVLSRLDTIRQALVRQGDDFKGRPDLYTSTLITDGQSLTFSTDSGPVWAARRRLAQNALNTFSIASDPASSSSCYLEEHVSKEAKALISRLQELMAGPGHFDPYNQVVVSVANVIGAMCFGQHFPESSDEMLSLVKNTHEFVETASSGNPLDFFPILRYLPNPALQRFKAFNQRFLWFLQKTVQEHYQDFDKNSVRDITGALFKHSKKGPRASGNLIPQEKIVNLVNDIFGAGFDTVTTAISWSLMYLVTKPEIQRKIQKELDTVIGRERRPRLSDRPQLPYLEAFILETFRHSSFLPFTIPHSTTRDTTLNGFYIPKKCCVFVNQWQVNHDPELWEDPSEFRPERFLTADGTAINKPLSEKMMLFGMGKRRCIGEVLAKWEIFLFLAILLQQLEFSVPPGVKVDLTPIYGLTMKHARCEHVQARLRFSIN

[17] = biological target: T4, DNA repair and recombination protein RAD54-like (Homo sapiens, UniProt Q92698); experiment: inhibitors of human RAD54 branch migration, confirmation, biochemical, fluorescence, cherry-picked samples, dose series (AID 651657); type: functional
T4 sequence (Q92698 whole entry): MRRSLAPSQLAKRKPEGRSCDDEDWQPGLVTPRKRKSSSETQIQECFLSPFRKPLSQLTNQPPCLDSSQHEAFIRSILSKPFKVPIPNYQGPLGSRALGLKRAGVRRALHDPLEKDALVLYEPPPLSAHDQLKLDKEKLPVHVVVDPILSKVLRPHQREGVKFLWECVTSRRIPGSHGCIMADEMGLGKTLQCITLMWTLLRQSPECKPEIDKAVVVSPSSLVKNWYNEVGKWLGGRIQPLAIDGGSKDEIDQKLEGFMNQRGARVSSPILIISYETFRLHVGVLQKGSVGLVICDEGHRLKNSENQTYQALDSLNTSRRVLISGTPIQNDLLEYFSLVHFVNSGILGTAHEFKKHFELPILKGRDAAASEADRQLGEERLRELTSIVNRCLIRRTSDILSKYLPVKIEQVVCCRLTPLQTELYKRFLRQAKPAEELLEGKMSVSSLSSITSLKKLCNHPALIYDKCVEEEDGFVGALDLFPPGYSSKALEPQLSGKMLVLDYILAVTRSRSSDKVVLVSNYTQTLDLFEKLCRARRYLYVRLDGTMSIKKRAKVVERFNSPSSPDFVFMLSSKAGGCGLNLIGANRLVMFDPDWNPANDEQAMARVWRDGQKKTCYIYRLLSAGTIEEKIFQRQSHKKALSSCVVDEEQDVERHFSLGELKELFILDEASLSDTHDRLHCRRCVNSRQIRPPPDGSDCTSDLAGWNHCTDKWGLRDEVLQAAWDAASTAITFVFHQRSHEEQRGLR

INS1 = experiment: beta cell apoptosis inhibitors, cytokine rescue, dose response, luminescence, retest (AID 449756); type: functional, cell-based; conditions: Rattus norvegicus;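 also: cell death triggered by IL-1 beta plus TNF-alpha plus IFN-gamma mixture; protective hits raise ATP signal compared with cytokine alone wells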
[18] = inhibitors of clade B AD8 Env fusion, dose response, cell-based, cherry-pick (AID 652062); type: functional;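 also: luciferase signal from cell-cell fusion driven by HIV-1 clade B AD8 Env; potency is for inhibitors of fusion seen as a drop in luminescence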
Cytochrome P450 2D6 = Cytochrome P450 2D6 (Homo sapiens, UniProt P10635);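 also: CYP2D6 member of a cytochrome P450 panel assay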
Sequence of Cytochrome P450 2D6 (P10635 whole entry): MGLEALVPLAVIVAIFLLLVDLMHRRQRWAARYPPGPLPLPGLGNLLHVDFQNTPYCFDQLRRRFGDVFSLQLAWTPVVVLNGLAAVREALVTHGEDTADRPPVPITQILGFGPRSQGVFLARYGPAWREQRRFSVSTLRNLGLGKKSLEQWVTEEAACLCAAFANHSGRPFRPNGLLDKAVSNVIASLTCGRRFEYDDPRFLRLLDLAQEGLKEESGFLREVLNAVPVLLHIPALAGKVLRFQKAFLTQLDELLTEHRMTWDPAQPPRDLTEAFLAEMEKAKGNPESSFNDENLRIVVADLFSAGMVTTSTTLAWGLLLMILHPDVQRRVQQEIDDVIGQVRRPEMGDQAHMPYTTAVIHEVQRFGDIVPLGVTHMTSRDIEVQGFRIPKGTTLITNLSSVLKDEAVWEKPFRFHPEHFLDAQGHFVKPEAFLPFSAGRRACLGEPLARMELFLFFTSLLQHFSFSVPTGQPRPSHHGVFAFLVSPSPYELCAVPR

[19] = Shn3 3'UTR reporter inhibitors, dose response, cell-based, Clone20 osteoblasts, firefly luciferase, cherry-picked (AID 624132); type: functional;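 also: firefly luciferase luminescence from reporter carrying the Shn3 3'UTR in osteoblasts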
[20] = control 3'UTR Renilla luciferase suppression, dose response, counter-screen for Shn3 inhibitor project, cell-based, Clone20-Shn3RL, cherry-picked (AID 624133); type: functional
[21] = inhibitors of HIV Env-driven cell fusion, dose response, cherry-pick (AID 652057); type: functional, cell-based
[22] = P. falciparum Dd2 growth inhibitors, dose response, SYBR Green, cherry-picked samples (AID 1159567); type: functional, cell-based

For `CC(=O)c1cn(S(=O)(=O)c2ccccc2)c2ccccc12`, the IC50 [1] was > 20 µM (inactive).
For `CCN(CC)CC(C)OC(=O)c1ccccc1Cl` (stereo unspecified), the EC50 [2] was > 112 µM (not active) and the EC50 [3] was > 112 µM (not active).
For `CC(=O)Nc1ccc(Nc2nc(-c3c(C)nc4ccccn34)cs2)cc1`, the EC50 [4] was 0.227 µM (active), the EC50 (BJ [5]) was 2.15 µM (active) and the EC50 [6] was 2.86 µM (inconclusive). The EC50 [7] was > 120 µM (not active), the EC50 [8] was 0.13 µM (active) and the EC50 (BJ [9]) was 70.7 µM (inconclusive). The EC50 (BJ [10]) was 0.654 µM (inconclusive).
In the case of `Cc1cccc2cc(CN(CC(C)C)S(=O)(=O)c3ccccc3)c(O)nc12`, the EC50 [2] is reported as > 112 µM (not active) and the EC50 [3] is reported as > 112 µM (not active).
In the case of `COc1cc(/C=C2/SC(Nc3ccc(O)cc3)=NC2=O)cc(OC)c1O`, the IC50 [1] is reported as > 20 µM (inactive).
In the case of `CC1(C)SC(=S)N(NC(=O)Nc2cccc3ccccc23)C1N(O)C(=O)Nc1ccccc1` (stereo unspecified), the EC50 [11] is reported as > 60 µM (not active), the EC50 [12] is reported as > 120 µM (not active) and the CC50 [13] is reported as 36.3 µM (active). The EC50 (H4) was > 120 µM (not active).
With `CC(C)NS(=O)(=O)c1ccc(NC(=S)NC(=O)c2cccc([N+](=O)[O-])c2)cc1` the IC50 [14] was > 66 µM (inactive) and the IC50 [15] was > 66 µM (inactive).
In the case of `Cc1ccn2c(NC3CCCCC3)c(-c3cccc(-c4cccc(Cl)c4)c3)nc2c1`, the AC50 [16] is reported as 2.85 µM (active) and the CC50 [13] is reported as > 40 µM (active).
For `CCOC(=O)C1C(c2ccc(OC)c(OC)c2)c2c(n[nH]c2O)CC1(C)O` (stereo unspecified), the EC50 [2] was > 112 µM (not active) and the EC50 [3] was > 112 µM (not active).
With `CN1CCN(c2ccc([N+](=O)[O-])cc2C(=O)c2ccc(Cl)cc2)CC1` the EC50 (BJ [5]) was 5.02 µM (active), the EC50 [6] was 4.22 µM (active) and the EC50 (BJ [9]) was 33.7 µM (inconclusive). For the same molecule, the EC50 (BJ [10]) was 11 µM (inconclusive).
With `CCOC(=O)c1c(NC(=O)c2c(C)noc2C)sc2c1CCCCC2` the AC50 (Cytochrome P450 1A2) was 5.01 µM (inconclusive), the EC50 [2] was > 112 µM (not active) and the EC50 [3] was > 112 µM (not active).
In the case of `COc1ccc(Cl)cc1C(=O)O/N=C(\N)c1ccccn1`, the CC50 [13] is reported as > 40 µM (active).
With `CCN1CCCC1CNC(=O)c1cc2c(-c3cccc(OC)c3)nn(C)c2s1` (stereo unspecified) the AC50 [17] was 56.9 µM (active).
In the case of `c1csc(-c2csc3ncnc(NCCCN4CCOCC4)c23)c1`, the AC50 (INS1) is reported as 9.18 µM (active) and the AC50 [18] is reported as 4.73 µM (active).
In the case of `Cc1ccc(NC(S)=Nc2ccc3c[nH]nc3c2)cc1`, the EC50 [2] is reported as > 112 µM (not active) and the EC50 [3] is reported as > 112 µM (not active).
For `COc1ccc2c3n(nc2c1)CCN=C3c1cc(Cl)c(N)c(Cl)c1`, the CC50 [13] was 35.5 µM (active).
With `O=C(NC(=S)Nc1cccnc1)c1cc2ccccc2o1` the IC50 [14] was > 66 µM (inactive) and the IC50 [15] was > 66 µM (inactive).
For `Oc1ccccc1-c1nc(NCCN2CCOCC2)c2ccccc2n1`, the AC50 [17] was 29.5 µM (active).
For `CCC(=O)N1CCN(c2ccc(NC(=S)NC(=O)c3cccc([N+](=O)[O-])c3)cc2)CC1`, the IC50 [14] was > 66 µM (inactive) and the IC50 [15] was > 66 µM (inactive).
For `CCOC(=O)CSc1nc2ccc(N)cc2s1`, the EC50 [2] was > 112 µM (not active) and the EC50 [3] was > 112 µM (not active).
In the case of `CCCCOc1ccc(CNn2c(C)nc3ccccc3c2=O)cc1`, the IC50 [1] is reported as > 20 µM (inactive) and the AC50 (Cytochrome P450 2D6) is reported as 7.94 µM (inconclusive).
For `O=C(CSc1nccn(-c2ccc(Br)cc2)c1=O)NC1CCCC1`, the IC50 [14] was > 66 µM (inactive) and the IC50 [15] was > 66 µM (inactive).
In the case of `O[C@@H](c1cc(C(F)(F)F)nc2c(C(F)(F)F)cccc12)[C@H]1CCCCN1`, the IC50 [1] is reported as > 20 µM (inactive) and the CC50 [13] is reported as 13.5 µM (active).
With `Cc1c(C(=O)N(Cc2cccc(Br)c2)C2CCS(=O)(=O)C2)oc2ccccc12` (stereo unspecified) the AC50 [19] was 35.9 µM (active) and the AC50 [20] was > 70 µM (inactive).
For `CCCCN1C(=N)N([C@@H](CCC)CN2CCC[C@H]2CN2C(N)=NC[C@H]2CC(C)C)C[C@H]1Cc1ccccc1`, the IC50 [1] was > 20 µM (inactive).
With `C=CCn1cc(/C=N/Nc2nc3ccccc3[nH]2)c2ccccc21` the EC50 [2] was > 112 µM (not active) and the EC50 [3] was 45.1 µM (active).
For `C[C@@H]1CN([C@H](C)CO)S(=O)(=O)c2ccc(-c3ccccc3)cc2O[C@@H]1CN(C)Cc1ccccc1`, the AC50 [21] was 31.8 µM (active).
In the case of `C[C@H]1CN([C@@H](C)CO)C(=O)c2cc(NS(C)(=O)=O)ccc2O[C@@H]1CN(C)Cc1ccc(Cl)c(Cl)c1`, the AC50 [21] is reported as 48.9 µM (active).
In the case of `C[C@H]1CN([C@@H](C)CO)C(=O)c2c(c3ccccc3n2C)-c2ccccc2CO[C@H]1CN(C)C(=O)CCC(F)(F)F`, the AC50 [18] is reported as 0.411 µM (active) and the AC50 [21] is reported as < 0.26 µM (active).
In the case of `COCCCn1c(-c2ccc(S(=O)(=O)N3CCOCC3)cc2)cs/c1=N/c1ccccc1`, the AC50 [18] is reported as 15.3 µM (active).
With `CN(C)CC#Cc1ccc([C@H]2[C@H](CO)N3CCCCN(C(=O)CN(C)C)C[C@@H]23)cc1` the AC50 [22] was 9.36 µM (active).
